Assays:
fibrin [1] = assay: Fibrin-SEPHAROSE affinity chromatography (binding and elution); set-up: species or system bovine
Method: Bovine fibrinogen was cross-linked to CNBr-activated SEPHAROSE™ (5 mg/ml beads) according to the manufacturer's instructions. Coupled fibrinogen was subsequently converted to fibrin by incubation with human thrombin to a final concentration of 5 NIH units/ml and 100 K.I. (kallikrein inhibitory) units/ml of aprotinin (in 0.05M Tris-HCI buffer, pH 7.6, containing 0.1M NaCl and 0.01M EDTA) for three hours, at room temperature (Gold, et al. (1983) Biochemistry 22, 4113-4119).
1.0M NaCl in 0.05M tris buffer, pH 8.0.
The fibrin-binding activity of the proteolytically derived 25.9 kDa fragment of Fn was determined by its ability to bind to a fibrin affinity matrix. […] FBB was used to equilibrate and wash the column. Following warming of the column to 22° C., the column was washed with FBB until absorbance at 280 nm (A280) was less than 0.01, and bound protein eluted with 0.05M Tris-HCl, 0.5M NaCl, 6M urea buffer, pH 7.6.
The module (500 μg/1.0 ml) was incubated for 4 hours (while rotating) at 4° C. in the presence of 1.0 ml fibrin-SEPHAROSE™ (5 mg fibrin/ml SEPHAROSE™ beads) equilibrated in […] Tris-HCl, 0.1M NaCl buffer, pH 7.6.
The 11 KDa peptide (50 μg/0.206 ml) was radiolabeled using the IODO-BEAD method (Pierce Chemical). The peptide was added to one IODO-BEAD in the presence of 100 μCi ^125 I (17.4 Ci/mg, New England Nuclear) and incubated on ice for 10 minutes. The bead was removed and the free ^125 I removed by chromatography through a PD10 column containing SEPHADEX™ G-25 (Pharmacia). […] The radioiodinated 11 kDa fibrin-binding peptide (500 μg/1.5 ml) was combined with 1 ml of fibrin-SEPHAROSE™ (5 mg fibrin/ml beads) equilibrated with 50 mM Tris-HCl, 0.1M NaCl buffer, pH 7.6, and rotated for 4 hours, at 4° C. The mixture was poured onto a disposable column (0.6 cm×8.0) and the unbound protein washed through. The column was equilibrated to room temperature and washed with the equilibration buffer.

fibrin [2] = test system: fibrin
Method: Since the anti-Fn detection system described for the ELISA above could not be used in Fn competition assays employing the intact Fn molecule or the 25.8 kDa proteolytic fragment, purified Fn was biotinylated using water soluble NHS-LC-Biotin (Pierce Chemm. Co.; according to the manufacturer's instructions) and binding to fibrin detected by alkaline phosphatase conjugated streptavidin (diluted 1/500 in FBBT/BSA) for 1 hour at 22° C., followed by the addition of p-nitrophenyl phosphate, as described above. To ensure that the biotinylation of the Fn had not affected its ability to bind to fibrin, fibrin-binding activity was tested by incubating increasing concentrations of biotinylated Fn (10-300 ng/0.1 ml FBB) with the fibrin-coated wells (200 ng) and detected (see FIG. 28A) using alkaline phosphatase-conjugated streptavidin and the reaction developed as described for Direct Elisa.
To compare the relative fibrin-binding affinities of the ^4 F1.^5 F1 recombinant module pair and the 25.9 kDa proteolytic fragment (^1 F1-^5 F1) with that of the native Fn molecule, these purified proteins were competed with biotinylated plasma Fn for binding to fibrin coated wells and the extent of inhibition of binding assessed by incubation with alkaline phosphatase-conjugated streptavidin. […] Biotinylated Fn (100 ng/0.1 ml FBB: 2.3 nM) was combined with increasing concentrations (0-10 μM) of either unlabeled Fn, the 25.9 kDa proteolytic fragment, or the separate ^4 F1.^5 F1, and ^10 F1 recombinant modules and incubated with the fibrin-coated microtiter wells for 1 hour at 22° C. […] Bound biotinylated Fn was quantitated as described above.

[3] = previously shown (Baron et al. 1990); cited from earlier work
[4] = Heparin affinity chromatography; type: binding; conditions: NaCl gradient in 0.05M tris buffer, pH 8.0
From the text: Upon warming the column to room temperature, a 25.9 kDa fragment was eluted with FBB (Peak a, FIG. 3). […] 1.0M NaCl in 0.05M tris buffer, pH 8.0. The yield of the 11 kDa fragment from the intact molecule was approximately 5% (w/w). This is the same as the theoretical yield. The extinction coefficient has been determined to be approximately 4.5, based on a comparison between A280 and protein concentration determination by Coomassie Protein Assay (Pierce Chemical Co.).

25.9 kDa fragment: 25.9 kDa N-terminal proteolytic fibrin-binding fragment of fibronectin (^1 F1-^5 F1), residues 17-246 of SEQ ID NO:1
% of protein applied eluted on warming the column to 22° C. (room temperature) (fibrin [1]; FBB buffer): approximately 8%
% of protein applied eluted with 0.5M NaCl, 6.0M urea buffer (fibrin [1]; after warming to 22° C.): approximately 17%
% of protein applied retained by fibrin-SEPHAROSE (fibrin [1]; binding at 4° C., 500 μg applied): 25%
% of protein applied retained by fibrin-Sepharose with increasing amounts applied (fibrin [1]; increasing amounts applied to a fixed volume of fibrin-Sepharose): 25%
relative affinity for fibrin (from elution conditions) (fibrin [1]; temperature change vs denaturing conditions (6M urea or 50% ethylene glycol) for elution): lower affinity
fold higher concentration over intact Fn needed for 50% inhibition (fibrin [2]): 7.5 fold
maximal inhibition of biotinylated Fn binding to fibrin (fibrin [2]; 10 μM of protein (5,000 molar excess)): 75%
IC50 (fibrin [2]; read-out: IC50, 50% inhibition of binding of biotinylated Fn to fibrin, biotinylated Fn 2.3 nM, 200 ng fibrin, 1 hour 22° C.): 150 nM
Ki (fibrin [2]; read-out: KI estimated from IC50 (Cheng and Prussoff)): 145 nM
heparin-binding activity, affinity [3]: intermediate
NaCl concentration at elution from heparin affinity chromatography [4]: 0.25 M
